Results: ChEMBL document CHEMBL1201862, “PubChem BioAssay data set” (2004)
Active and inactive are the calls of the source.

Columns and labels:
[1] = ADAM10 inhibitors, peptide cleavage, dose response, biochemical, QFRET (AID 743254);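 note: ADAM10 enzyme with the DM2 quenched FRET peptide as substrate; EDANS fluorescence gain as the protease cuts the substrate; inhibitor potency against ADAM10 proteolytic activity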
[2] = HEK293T cytotoxicity, dose response, cytotoxicity control for miR-122 modulator project, cell-based, inhibitor set, cherry-pick, set 2 (AID 720697); type: functional
[3] = molecular target: Phospholipase A2 (Homo sapiens, UniProt P04054); type: functional;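 note: confirmatory dose-response counterscreen on phospholipase A2, testing hits that came from an ultra-high-throughput screen for ATG4B inhibitors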
Chain of Phospholipase A2 (P04054 whole entry): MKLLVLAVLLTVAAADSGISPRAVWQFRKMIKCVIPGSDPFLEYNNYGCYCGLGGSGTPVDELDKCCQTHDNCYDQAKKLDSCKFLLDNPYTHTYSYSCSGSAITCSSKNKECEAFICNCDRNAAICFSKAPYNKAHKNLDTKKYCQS

[4] = molecular target: T1, Adenosylmethionine-8-amino-7-oxononanoate aminotransferase (Mycobacterium tuberculosis, UniProt P9WQ81); assay: Mycobacterium tuberculosis BioA enzyme inhibitor Measured in Biochemical System Using Plate Reader - 2163-02_Inhibitor_Dose_CherryPick_Activity.; type: functional, Mycobacterium tuberculosis UT205
T1 sequence (P9WQ81 whole entry): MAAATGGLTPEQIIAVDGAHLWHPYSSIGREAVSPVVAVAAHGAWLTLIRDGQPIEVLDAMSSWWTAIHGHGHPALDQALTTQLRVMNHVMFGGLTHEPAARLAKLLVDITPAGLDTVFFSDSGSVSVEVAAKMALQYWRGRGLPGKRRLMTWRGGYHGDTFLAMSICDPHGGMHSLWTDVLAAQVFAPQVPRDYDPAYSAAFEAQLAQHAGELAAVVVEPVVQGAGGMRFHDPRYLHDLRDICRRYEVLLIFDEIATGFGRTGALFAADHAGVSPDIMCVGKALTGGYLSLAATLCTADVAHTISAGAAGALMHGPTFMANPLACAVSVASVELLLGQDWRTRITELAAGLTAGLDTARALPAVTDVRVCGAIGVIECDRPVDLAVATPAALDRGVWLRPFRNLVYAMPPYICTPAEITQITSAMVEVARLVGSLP

[5] = molecular target: T2, Cysteine protease ATG4B (Homo sapiens, UniProt Q9Y4P1); type: functional;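 note: Fluorescence-based dose-response confirmation assay measuring inhibition of ATG4B activity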
T2 sequence (Q9Y4P1 whole entry): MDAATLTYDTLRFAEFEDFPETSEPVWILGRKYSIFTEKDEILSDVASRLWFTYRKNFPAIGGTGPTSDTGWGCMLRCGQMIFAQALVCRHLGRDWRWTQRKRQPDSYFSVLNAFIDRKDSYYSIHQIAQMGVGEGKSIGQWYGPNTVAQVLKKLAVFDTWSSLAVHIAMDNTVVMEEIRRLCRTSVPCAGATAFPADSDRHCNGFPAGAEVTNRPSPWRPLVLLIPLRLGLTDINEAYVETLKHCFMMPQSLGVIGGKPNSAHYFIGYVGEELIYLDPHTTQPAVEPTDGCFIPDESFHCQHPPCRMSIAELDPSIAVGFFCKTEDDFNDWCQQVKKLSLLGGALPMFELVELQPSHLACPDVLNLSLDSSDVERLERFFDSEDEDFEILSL

[6] = molecular target: T3, Beta-lactamase (Pseudomonas aeruginosa, UniProt Q79MP6); assay: IMP-1 metallo-beta-lactamase inhibitors, dose response, selectivity assay for VIM-2 inhibitor project, biochemical, epi-absorbance (AID 1920)
T3 sequence (Q79MP6 whole entry): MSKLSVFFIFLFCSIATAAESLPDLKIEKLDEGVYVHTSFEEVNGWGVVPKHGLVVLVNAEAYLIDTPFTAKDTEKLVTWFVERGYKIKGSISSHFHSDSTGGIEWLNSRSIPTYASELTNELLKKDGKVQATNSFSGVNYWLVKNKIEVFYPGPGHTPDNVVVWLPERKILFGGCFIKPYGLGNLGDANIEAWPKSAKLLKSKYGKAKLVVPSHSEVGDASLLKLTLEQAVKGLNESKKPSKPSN

[7] = molecular target: T3, Beta-lactamase; assay: […] counterscreen for selective VIM-2 inhibitors: dose response biochemical high throughput screening assay to identify inhibitors of IMP-1 metallo-beta-lactamase.
[8] = molecular target: Beta-lactamase (Salmonella choleraesuis (strain SC-B67), UniProt Q5J463); assay: Epi-absorbance-based counterscreen for selective VIM-2 inhibitors: dose response biochemical high throughput screening assay to identify inhibitors of TEM-1 serine-beta-lactamase.
Chain of Beta-lactamase (Salmonella choleraesuis (strain SC-B67), UniProt Q5J463) (Q5J463 whole entry): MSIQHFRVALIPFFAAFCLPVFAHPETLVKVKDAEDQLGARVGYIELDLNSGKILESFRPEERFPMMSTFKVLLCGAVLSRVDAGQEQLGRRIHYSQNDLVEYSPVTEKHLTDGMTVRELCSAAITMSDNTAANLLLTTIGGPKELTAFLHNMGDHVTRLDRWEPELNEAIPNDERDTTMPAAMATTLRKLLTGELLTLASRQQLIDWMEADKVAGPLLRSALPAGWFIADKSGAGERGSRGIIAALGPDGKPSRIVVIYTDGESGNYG

[9] = system: H4; assay: Luminescence Cell-Based Dose Response HTS to Identify Activators of 5'UTR Stem-Loop Driven Prion Protein mRNA Translation in H4 Neuroglioblastoma Cells. [Related pubchem assays: 1829 (Project Summary), 1814 (Primary HTS)]; type: functional; conditions: Homo sapiens
[10] = molecular target: T4, Sentrin-specific protease 8 (Homo sapiens, UniProt Q96LD8); type: functional
T4 sequence (Q96LD8 whole entry): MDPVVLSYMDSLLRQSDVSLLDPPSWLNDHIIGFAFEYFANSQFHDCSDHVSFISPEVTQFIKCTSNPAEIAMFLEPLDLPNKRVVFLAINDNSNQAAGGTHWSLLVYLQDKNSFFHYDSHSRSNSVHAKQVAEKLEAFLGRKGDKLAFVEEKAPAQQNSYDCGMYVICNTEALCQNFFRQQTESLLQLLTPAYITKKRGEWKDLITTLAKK

[11] = Luminescence Cell-Based Dose Response HTS to Identify Activators of Luciferase Translation or Activity in H4 […] Cells. [Related pubchem assays: 1829 (Project Summary), 1814 (Primary HTS)]; type: functional
[12] = molecular target: T4, Sentrin-specific protease 8; type: functional; remark: listed apart in the source
[13] = Luminescence Cell-Based Dose Confirmation HTS to Identify Activators of 5'UTR Stem-Loop Driven Alpha-Synuclein mRNA Translation in H4 Neuroglioblastoma Cells. [Related pubchem assays: 1829 (Project Summary), 1814 (Primary HTS)]; type: functional
[14] = molecular target: T5, Trace amine-associated receptor 1 (Homo sapiens, UniProt Q96RJ0); assay: Fluorescence-based cell-based high throughput dose response assay to identify agonists of the human trace amine associated receptor 1 (TAAR1).; type: functional
T5 sequence (Q96RJ0 whole entry): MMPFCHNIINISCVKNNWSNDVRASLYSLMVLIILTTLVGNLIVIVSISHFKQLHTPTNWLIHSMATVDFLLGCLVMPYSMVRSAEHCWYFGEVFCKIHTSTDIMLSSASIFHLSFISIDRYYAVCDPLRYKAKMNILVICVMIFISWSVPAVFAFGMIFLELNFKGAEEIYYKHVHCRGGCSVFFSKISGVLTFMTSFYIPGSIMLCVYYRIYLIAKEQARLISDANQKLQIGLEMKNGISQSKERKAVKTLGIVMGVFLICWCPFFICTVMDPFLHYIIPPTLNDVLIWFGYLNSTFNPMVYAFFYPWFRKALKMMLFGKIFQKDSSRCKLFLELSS

[15] = cells; type: functional, cell-based
[16] = cells; type: functional, cell-based; remark: listed apart in the source
[17] = molecular target: T5, Trace amine-associated receptor 1; assay: Counterscreen for agonists of the human trace amine associated receptor 1 (hTAAR1): Fluorescence-based cell-based high throughput dose response assay to identify hTAAR1 agonist that also desensitize TAAR1 receptor response.; type: functional
[18] = molecular target: T6, DNA repair and recombination protein RAD54-like (Homo sapiens, UniProt Q92698); assay: inhibitors of human RAD54 branch migration, confirmation, biochemical, fluorescence, cherry-picked samples, dose series (AID 651657); type: functional
T6 sequence (Q92698 whole entry): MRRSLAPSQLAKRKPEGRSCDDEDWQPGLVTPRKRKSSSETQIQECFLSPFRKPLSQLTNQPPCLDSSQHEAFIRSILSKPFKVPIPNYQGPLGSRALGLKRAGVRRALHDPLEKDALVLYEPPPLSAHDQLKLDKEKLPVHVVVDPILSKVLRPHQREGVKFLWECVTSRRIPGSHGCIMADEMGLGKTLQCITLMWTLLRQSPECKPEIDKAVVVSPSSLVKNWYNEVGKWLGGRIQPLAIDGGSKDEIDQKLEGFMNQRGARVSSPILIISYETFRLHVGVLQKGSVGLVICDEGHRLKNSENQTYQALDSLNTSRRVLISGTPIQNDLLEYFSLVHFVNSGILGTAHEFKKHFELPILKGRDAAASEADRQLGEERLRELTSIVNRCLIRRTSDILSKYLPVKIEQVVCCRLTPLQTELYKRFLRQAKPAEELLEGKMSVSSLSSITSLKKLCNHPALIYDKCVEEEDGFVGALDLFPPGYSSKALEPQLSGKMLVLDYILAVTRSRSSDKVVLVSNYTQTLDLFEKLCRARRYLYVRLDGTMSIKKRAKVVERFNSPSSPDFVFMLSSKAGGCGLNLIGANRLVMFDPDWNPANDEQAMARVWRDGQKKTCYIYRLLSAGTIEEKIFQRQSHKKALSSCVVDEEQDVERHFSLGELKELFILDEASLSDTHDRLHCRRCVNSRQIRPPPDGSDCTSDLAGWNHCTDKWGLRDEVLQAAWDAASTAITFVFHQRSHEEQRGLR

[19] = molecular target: T7, DNA repair protein RAD52 homolog (Homo sapiens, UniProt P43351); type: functional, biochemical
T7 sequence (P43351 whole entry): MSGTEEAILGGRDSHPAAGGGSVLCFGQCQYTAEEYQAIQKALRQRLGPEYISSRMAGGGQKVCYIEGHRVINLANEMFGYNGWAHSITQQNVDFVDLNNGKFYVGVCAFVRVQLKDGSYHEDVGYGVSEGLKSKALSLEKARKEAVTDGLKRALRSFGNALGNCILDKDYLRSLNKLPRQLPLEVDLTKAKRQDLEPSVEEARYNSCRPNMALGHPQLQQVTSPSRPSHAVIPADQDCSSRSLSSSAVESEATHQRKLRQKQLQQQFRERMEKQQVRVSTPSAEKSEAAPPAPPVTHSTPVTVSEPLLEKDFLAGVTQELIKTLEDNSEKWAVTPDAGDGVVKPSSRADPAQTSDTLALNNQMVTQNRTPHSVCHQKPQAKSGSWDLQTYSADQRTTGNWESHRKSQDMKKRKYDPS

[20] = molecular target: SWI/SNF-related matrix-associated actin-dependent regulator of chromatin subfamily A member 2 (Homo sapiens, UniProt P51531); assay: Luminescence-based cell-based high throughput dose response assay to identify activators of the function of SWI/SNF related, matrix associated, actin dependent regulator of chromatin, subfamily a, member 2 (SMARCA2, BRM).; type: functional
Chain of SWI/SNF-related matrix-associated actin-dependent regulator of chromatin subfamily A member 2 (P51531 whole entry): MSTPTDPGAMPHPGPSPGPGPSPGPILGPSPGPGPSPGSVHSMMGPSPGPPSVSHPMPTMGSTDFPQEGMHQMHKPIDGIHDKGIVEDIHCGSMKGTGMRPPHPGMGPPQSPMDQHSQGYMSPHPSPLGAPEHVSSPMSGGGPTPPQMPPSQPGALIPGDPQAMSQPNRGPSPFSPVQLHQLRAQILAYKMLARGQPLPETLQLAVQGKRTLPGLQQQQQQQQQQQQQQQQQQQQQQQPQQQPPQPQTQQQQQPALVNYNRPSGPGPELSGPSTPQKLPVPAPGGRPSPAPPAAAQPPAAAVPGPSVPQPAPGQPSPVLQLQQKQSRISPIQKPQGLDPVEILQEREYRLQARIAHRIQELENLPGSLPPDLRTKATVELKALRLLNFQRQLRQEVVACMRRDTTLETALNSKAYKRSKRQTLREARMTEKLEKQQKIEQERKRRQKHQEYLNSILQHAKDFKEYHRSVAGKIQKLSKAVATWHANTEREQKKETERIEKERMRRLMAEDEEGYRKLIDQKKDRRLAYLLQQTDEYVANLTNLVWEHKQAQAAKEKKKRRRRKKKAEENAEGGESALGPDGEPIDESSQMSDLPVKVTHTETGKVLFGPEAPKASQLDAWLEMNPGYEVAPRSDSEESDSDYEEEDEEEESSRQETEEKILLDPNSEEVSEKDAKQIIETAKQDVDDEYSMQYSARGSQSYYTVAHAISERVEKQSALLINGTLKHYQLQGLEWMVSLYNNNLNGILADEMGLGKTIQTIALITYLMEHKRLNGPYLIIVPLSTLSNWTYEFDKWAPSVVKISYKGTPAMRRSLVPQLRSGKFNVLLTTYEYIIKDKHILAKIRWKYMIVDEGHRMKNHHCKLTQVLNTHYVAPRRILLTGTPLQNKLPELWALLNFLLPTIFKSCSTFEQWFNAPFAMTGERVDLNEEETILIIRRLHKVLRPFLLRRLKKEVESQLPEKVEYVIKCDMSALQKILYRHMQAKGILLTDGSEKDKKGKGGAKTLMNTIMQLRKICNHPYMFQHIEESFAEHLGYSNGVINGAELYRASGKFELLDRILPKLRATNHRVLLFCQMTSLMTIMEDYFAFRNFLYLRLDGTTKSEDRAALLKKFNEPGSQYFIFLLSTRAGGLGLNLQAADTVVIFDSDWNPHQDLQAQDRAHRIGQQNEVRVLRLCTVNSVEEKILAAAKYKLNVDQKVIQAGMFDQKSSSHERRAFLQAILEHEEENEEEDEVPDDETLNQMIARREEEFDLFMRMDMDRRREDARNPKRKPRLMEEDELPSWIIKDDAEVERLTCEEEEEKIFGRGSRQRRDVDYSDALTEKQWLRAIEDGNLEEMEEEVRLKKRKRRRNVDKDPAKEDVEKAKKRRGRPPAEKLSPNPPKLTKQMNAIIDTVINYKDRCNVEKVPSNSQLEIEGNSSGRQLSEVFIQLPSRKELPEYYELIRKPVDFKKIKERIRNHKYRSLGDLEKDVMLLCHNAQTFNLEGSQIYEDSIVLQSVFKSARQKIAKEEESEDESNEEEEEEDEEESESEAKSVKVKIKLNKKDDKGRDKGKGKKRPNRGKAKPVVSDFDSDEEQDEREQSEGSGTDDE

[21] = Counterscreen for activators of the function of SWI/SNF related, matrix associated, actin dependent regulator of chromatin, subfamily a, member 2 (SMARCA2, BRM): Luminescence-based cell-based high throughput dose response assay to identify non-selective compounds using the VP16 reporter assay.; type: functional

With `Cc1ccc(C(S)=NCS(=O)(=O)c2ccc(C)cc2)cc1` the IC50 [1] was 5.2 µM (active).

In the case of `O=C(c1ccco1)N1CCN(C2CC(=O)N(c3ccccc3)C2=O)CC1` (centres undefined), the AC50 [2] is reported as 5.02 µM (active).

With `CCCOc1ccc2c3c(c(=O)oc2c1OCCC)CCC3` the IC50 [3] was 7.13 µM (active), the AC50 [4] was 14.7 µM (active) and the IC50 [5] was 11.4 µM (active).

In the case of `Cc1ccc(-c2c(C(=O)O)c(C(=O)O)c3n2CSC3)cc1`, the IC50 [6] is reported as > 59.6 µM (inactive), the IC50 [7] is reported as 15.7 µM (inactive) and the IC50 [8] is reported as > 59.6 µM (inactive).

For `O=C(/C=C/NNC(=O)c1ccc(Cl)cc1)c1ccccc1`, the EC50 [9] was 49.6 µM (active), the IC50 [10] was > 100 µM (inactive) and the EC50 [11] was > 120 µM (not active). The IC50 [12] was 37.4 µM (active) and the EC50 [13] was > 120 µM (not active).

For `COc1ccccc1CCNCc1ccc(OC)c(OC)c1OC`, the EC50 [14] was 2.37 µM (active), the EC50 [15] was > 29.9 µM (inactive) and the IC50 [16] was > 29.9 µM (inactive). The IC50 [17] was 10.5 µM (inactive).

For `COc1ccc(C)c2sc(N(CCN(C)C)C(=O)c3ccc4ccccc4c3)nc12`, the AC50 [18] was 79.4 µM (active) and the AC50 [19] was 14.1 µM (active).

In the case of `O=C(CS(=O)(=O)Cc1ccccc1)N1CCc2ccccc2C1`, the IC50 [10] is reported as 11.4 µM (active) and the IC50 [12] is reported as 6.67 µM (active).

In the case of `N=C(N)NCCC[C@@H]1NC(=O)c2cc([N+](=O)[O-])cc(F)c2NCCCC[C@@H](C(N)=O)NC(=O)CNC1=O`, the AC50 [19] is reported as 14.8 µM (active).

For `O=C(CSc1nnc2ccccn12)Nc1ncc(Cl)cc1Cl`, the EC50 [20] was > 91.2 µM (inactive) and the EC50 [21] was > 91.2 µM (inactive).
